The values that follow come from patent publication US10633417B2 (priority 2013, dated 2020).

pIC50: −log10 of the molar value.

Assay [1] concerns the target human α9α10 nAChR (Homo sapiens, UniProt Q9GZZ6+Q9UGM1). Put plainly: cell-based. In kind it is cell-based.
In assay [2] the test system is Sprague Dawley rats. The note with it: rat, in vivo.
In assay [3] the test system is Sprague-Dawley rats. The note with it: rat, in vivo.
In assay [4] the test system is Sprague-Dawley rats. The settings on record: rat, in vivo. This is another data set of the same source.
For assay [5], the system named is Sprague-Dawley rats. The note with it: rat, in vivo. The source holds these as a separate data set.
Assay [6] relates to Sprague-Dawley rats. The note with it: rat, in vivo. This is another data set of the same source.

human α9α10 nAChR, sequence (Q9UGM1 26-479 limits assumed): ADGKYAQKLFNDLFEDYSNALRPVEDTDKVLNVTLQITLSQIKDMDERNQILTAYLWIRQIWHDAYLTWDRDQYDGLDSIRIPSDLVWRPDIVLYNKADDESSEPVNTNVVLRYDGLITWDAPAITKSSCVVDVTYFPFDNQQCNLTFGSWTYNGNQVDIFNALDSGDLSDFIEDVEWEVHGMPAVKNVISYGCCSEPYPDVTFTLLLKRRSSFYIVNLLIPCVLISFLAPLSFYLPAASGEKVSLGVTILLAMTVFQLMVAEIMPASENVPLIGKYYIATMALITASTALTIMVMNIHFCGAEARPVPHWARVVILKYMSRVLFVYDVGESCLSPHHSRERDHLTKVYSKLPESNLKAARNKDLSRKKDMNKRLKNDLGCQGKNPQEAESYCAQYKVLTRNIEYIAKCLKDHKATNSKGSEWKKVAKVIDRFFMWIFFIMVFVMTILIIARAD
human α9α10 nAChR, sequence (Q9GZZ6 25-450 limits assumed): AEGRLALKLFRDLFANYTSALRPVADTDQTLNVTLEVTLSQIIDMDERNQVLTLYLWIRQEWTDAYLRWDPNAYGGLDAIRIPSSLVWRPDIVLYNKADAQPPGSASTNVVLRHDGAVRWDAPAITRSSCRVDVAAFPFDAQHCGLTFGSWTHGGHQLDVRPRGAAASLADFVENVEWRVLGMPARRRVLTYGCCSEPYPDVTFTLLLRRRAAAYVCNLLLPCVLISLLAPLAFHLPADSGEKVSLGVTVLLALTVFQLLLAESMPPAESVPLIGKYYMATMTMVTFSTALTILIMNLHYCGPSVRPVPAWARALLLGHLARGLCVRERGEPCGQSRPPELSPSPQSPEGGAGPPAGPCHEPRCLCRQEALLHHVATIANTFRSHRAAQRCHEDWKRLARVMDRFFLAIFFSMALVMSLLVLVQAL

In assay [1], `C[C@@H](O)[C@@H]1NC(=O)[C@@H]2CSSC[C@@H](C(=O)N[C@@H](CCCNC(=N)N)C(=O)N[C@@H](CCCNC(=N)N)C(=O)N[C@@H](CCCNC(=N)N)C(=O)O)NC(=O)[C@H](CCC(N)=O)NC(=O)[C@H](Cc3ccc(O)c(I)c3)NC(=O)[C@H](CCCNC(N)=O)NC(=O)[C@H](CSSC[C@H](NC(=O)CN)C(=O)N2)NC(=O)[C@H](CCCNC(=N)N)NC(=O)[C@@H]2CCCN2C(=O)[C@H](CC(=O)O)NC1=O` [Analog 4] gave a Fold improvement of 109 fold and a pIC50 of 8.34.
The like results for `C[C@@H](O)[C@@H]1NC(=O)[C@@H]2CSSC[C@@H](C(=O)N[C@@H](Cc3ccc(O)cc3)C(=O)N[C@@H](CCCNC(=N)N)C(=O)N[C@@H](CCCNC(=N)N)C(=O)O)NC(=O)[C@H](CCC(N)=O)NC(=O)[C@H](Cc3ccc(O)c(I)c3)NC(=O)[C@H](CCCNC(N)=O)NC(=O)[C@H](CSSC[C@H](NC(=O)CN)C(=O)N2)NC(=O)[C@H](CCCNC(=N)N)NC(=O)[C@@H]2CCCN2C(=O)[C@H](CC(=O)O)NC1=O` [Analog 5] were, in that order, 325 fold and 8.82.
In assay [1], `C[C@@H](O)[C@@H]1NC(=O)[C@@H]2CSSC[C@@H](C(=O)N[C@@H](CCCNC(=N)N)C(=O)N[C@@H](CCCNC(=N)N)C(=O)N[C@@H](Cc3ccc(O)cc3)C(=O)O)NC(=O)[C@H](CCC(N)=O)NC(=O)[C@H](Cc3ccc(O)c(I)c3)NC(=O)[C@H](CCCNC(N)=O)NC(=O)[C@H](CSSC[C@H](NC(=O)CN)C(=O)N2)NC(=O)[C@H](CCCNC(=N)N)NC(=O)[C@@H]2CCCN2C(=O)[C@H](CC(=O)O)NC1=O` [Analog 6] gave a Fold improvement of 120 fold and a negative-log IC50 (pIC50) of 8.39.
For `C[C@@H](O)[C@@H]1NC(=O)[C@@H]2CSSC[C@@H](C(=O)N[C@@H](Cc3ccccc3)C(=O)O)NC(=O)[C@H](CCC(N)=O)NC(=O)[C@H](Cc3ccc(O)c(I)c3)NC(=O)[C@H](CCCNC(N)=O)NC(=O)[C@H](CSSC[C@H](NC(=O)CN)C(=O)N2)NC(=O)[C@H](CCCNC(=N)N)NC(=O)[C@@H]2CCCN2C(=O)[C@H](CC(=O)O)NC1=O` [Analog 7], in assay [1], the Fold improvement was determined as 470 fold and the pIC50 was 8.98.
Take `C[C@@H](O)[C@@H]1NC(=O)[C@@H]2CSSC[C@@H](C(=O)N[C@@H](Cc3c[nH]c4ccccc34)C(=O)O)NC(=O)[C@H](CCC(N)=O)NC(=O)[C@H](Cc3ccc(O)c(I)c3)NC(=O)[C@H](CCCNC(N)=O)NC(=O)[C@H](CSSC[C@H](NC(=O)CN)C(=O)N2)NC(=O)[C@H](CCCNC(=N)N)NC(=O)[C@@H]2CCCN2C(=O)[C@H](CC(=O)O)NC1=O` [Analog 8]: in assay [1], the Fold improvement turned out to be 236 fold and the pIC50 was 8.68.
In assay [1], `C[C@@H](O)[C@@H]1NC(=O)[C@@H]2CSSC[C@@H](C(=O)N[C@@H](Cc3ccc(O)cc3)C(=O)N[C@@H](Cc3ccc(O)cc3)C(=O)O)NC(=O)[C@H](CCC(N)=O)NC(=O)[C@H](Cc3ccc(O)c(I)c3)NC(=O)[C@H](CCCNC(N)=O)NC(=O)[C@H](CSSC[C@H](NC(=O)CN)C(=O)N2)NC(=O)[C@H](CCCNC(=N)N)NC(=O)[C@@H]2CCCN2C(=O)[C@H](CC(=O)O)NC1=O` [Analog 9] showed a Fold improvement of 553 fold and a pIC50 of 9.05.
Consider `C[C@@H](O)[C@@H]1NC(=O)[C@@H]2CSSC[C@@H](C(=O)N[C@@H](Cc3ccc(O)cc3)C(=O)N[C@@H](CCCNC(=N)N)C(=O)O)NC(=O)[C@H](CCC(N)=O)NC(=O)[C@H](Cc3ccc(O)c(I)c3)NC(=O)[C@H](CCCNC(N)=O)NC(=O)[C@H](CSSC[C@H](NC(=O)CN)C(=O)N2)NC(=O)[C@H](CCCNC(=N)N)NC(=O)[C@@H]2CCCN2C(=O)[C@H](CC(=O)O)NC1=O` [Analog 10], for which, in assay [1], the Fold improvement is on record as 598 fold and the pIC50 is 9.08.
For the compound `C[C@@H](O)[C@@H]1NC(=O)[C@@H]2CSSC[C@@H](C(=O)N[C@@H](Cc3ccc(O)cc3)C(=O)O)NC(=O)[C@H](CCC(N)=O)NC(=O)[C@H](Cc3ccc(O)c(I)c3)NC(=O)[C@H](CCCNC(=N)N)NC(=O)[C@H](CSSC[C@H](NC(=O)CN)C(=O)N2)NC(=O)[C@H](CCCNC(=N)N)NC(=O)[C@@H]2CCCN2C(=O)[C@H](CC(=O)O)NC1=O` [Analog 11], the Fold improvement in assay [1] is recorded as 1,123 fold.
Take `C[C@@H](O)[C@@H]1NC(=O)[C@@H]2C[Se]SC[C@@H](C(=O)N[C@@H](CCCNC(=N)N)C(=O)O)NC(=O)[C@H](CCC(N)=O)NC(=O)[C@H](Cc3ccc(O)c(I)c3)NC(=O)[C@H](CCCNC(N)=O)NC(=O)[C@H](CS[Se]C[C@H](NC(=O)CN)C(=O)N2)NC(=O)[C@H](CCCNC(=N)N)NC(=O)[C@@H]2CCCN2C(=O)[C@H](CC(=O)O)NC1=O` [SEQ ID NO:20, GX4X4TDPRCX2X3QCR]: in assay [1], the Fold improvement turned out to be 5.7 fold and the “fold increase in potency on the human receptor” value is given as 10 fold.
GCCTDPRCRX3QCY [Analog 11]: the “burn-induced thermal hyperalgesia (Hargraves method)” value in assay [2] was “significantly reduced”.
On to GCCTDPRCX2X3QCRRR [Analog 4], for which the “potency on the human receptor after further optimization of Analog 2” value in assay [1] was “improved potency”.
Regarding GCCTDPRCX2X3QCY [Analog 3], in assay [1], the “potency on the human receptor after further optimization of Analog 2” value was “improved potency”. Moreover, the “analgesic effect in OXA chemotherapy induced neuropathic pain” value in assay [3] is “analgesic effect”. In addition, in assay [4], the “efficacy on mechanical hyperalgesia 24 h after injection” value was “still significant”, the “pain threshold (mechanical hyperalgesia) 30 min after injection” value is “acutely increased pain threshold” and the “prevention of OXA-induced mechanical hyperalgesia” value is on record as “significantly prevented”. Moreover, in assay [5], the “OXA-induced pain threshold decrease (von Frey), day 7, 30 min” value is listed as “reverted”; the “activity on mechanical allodynia (von Frey), days 14 and 21” value is “active”; the “analgesic effect (von Frey), day 7, 24 h later” value was “not observed”. In assay [6], the “prevention of OXA-induced cold allodynia, day 7” value is reported as “able to prevent OXA-induced cold allodynia”; the “prevention of OXA-induced cold allodynia, day 14 and 21” value is on record as “able to prevent OXA-induced cold allodynia”.
